Test results published in patent US20080125463A1, “N-(1-hetarylpiperidin-4-yl)(het)arylamides as EP2 receptor modulators” (priority 2006, published 2008).
Like-named read-outs stand apart in the source and are kept apart here.

What was measured:
[1] = target: T1, human prostaglandin E2 (subtype EP2) receptor (Homo sapiens, UniProt P43116); assay: cAMP antagonism assay (HTRF cAMP detection, in the presence of PGE2); assay type: cell-based
T1 construct: host or cells: cells in a cell culture plate
Experimental: (§1) The binding of PGE2 to the EP2 subtype of the human PGE2 receptor induces activation of membrane-associated adenylate cyclases and leads to the formation of cAMP. In the presence of the phosphodiesterase inhibitor IBMX, cAMP which has accumulated due to this stimulation and been released by cell lysis is employed in a competitive detection method. In this assay, the cAMP in the lysate competes with cAMP-XL665 for binding of an Eu cryptate-labeled anti-cAMP antibody.
(§2) The two signals are measured in a suitable measuring instrument with a time lag, i.e. after the background fluorescence has declined.
(§3) The substance solutions (0.75 μl) containing 30% DMSO are introduced into an assay plate and dissolved in 16 μl of a KRSB+IBMX stimulation solution (1× Krebs-Ringer Bicarbonate Buffer; Sigma-Aldrich #K-4002; including 750 μM 3-isobutyl-1-methylxanthine Sigma-Aldrich #I-7018), and then 15 μl thereof are transferred into a media-free cell culture plate which has been washed with KRSB shortly beforehand.
After preincubation at room temperature (RT) for 30 minutes, 5 μl of a 4×PGE2 solution (11 nM) are added, and incubation is carried out in the presence of the agonist at RT for a further 60 min (volume: ˜20 μl) before the reaction is then stopped by adding 5 μl of lysis buffer and incubated at RT for a further 20 min (volume: ˜25 μl). The cell lysate is then transferred into a measuring plate and measured in accordance with the manufacturer's information (cyclic AMP kit Cisbio International #62AMPPEC).

[2] = target: T1, human prostaglandin E2 (subtype EP2) receptor; assay: cAMP agonism assay (HTRF cAMP detection); assay type: cell-based
Experimental: as §1, §2, §3
After incubation at room temperature (RT; volume: ˜15 μl) for 60 minutes, the reaction is then stopped by adding 5 μl of lysis buffer and incubated at RT for a further 20 min (volume: ˜20 μl). The cell lysate is then transferred into a measuring plate and measured in accordance with the manufacturer's information (cyclic AMP kit Cisbio International #62AMPPEC).

cumulus-oocyte complexes = assay: Cumulus expansion assay in vitro; assay type: cell-based, mice; settings: competing with PGE2
Experimental: Folliculogenesis is induced in immature female mice (strain: CD1 (ICR) from Charles River) at an age of 14-18 days by a single dose (intraperitoneally) of 10 I.U. of PMSG (Pregnant Mare Serum Gonadotropin; Sigma G-4877, Batch 68H0909). 47-50 hours after the injection, the ovaries are removed and the cumulus-oocyte complexes are removed. The cumulus complex is not yet expanded at this stage.
The cumulus-oocyte complexes are then incubated with prostaglandin E2 (PGE2) (1 μM), vehicle control (ethanol) or test substances for 20-24 hours. Medium: alpha-MEM medium with 0.1 mM IBMX, pyruvates (0.23 mM), glutamines (2 mM), pen/strep (100 IU/ml pen. and 100 μg/ml strep.) and HSA (8 mg/ml). Cumulus expansion is then established through the division into four stages (according to Vanderhyden et al. Dev Biol. 1990 August; 140(2):307-317).

[3] = cAMP antagonism assay, EP2 receptor, in presence of PGE2, read-out: Antagonism [IC50
[4] = cAMP agonism assay, EP2 receptor, read-out: Agonism [ED50

T1 sequence (P43116 whole entry): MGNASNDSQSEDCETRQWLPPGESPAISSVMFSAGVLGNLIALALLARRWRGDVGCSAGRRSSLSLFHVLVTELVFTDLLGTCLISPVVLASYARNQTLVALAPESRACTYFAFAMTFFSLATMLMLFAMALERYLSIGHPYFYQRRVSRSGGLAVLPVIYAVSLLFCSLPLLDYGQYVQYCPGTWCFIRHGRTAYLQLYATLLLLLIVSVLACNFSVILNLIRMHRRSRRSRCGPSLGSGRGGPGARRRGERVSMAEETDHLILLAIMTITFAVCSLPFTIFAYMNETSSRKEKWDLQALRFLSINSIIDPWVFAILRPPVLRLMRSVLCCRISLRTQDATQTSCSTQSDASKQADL

Structure (SMILES)	IC50 [1, 3] [nM]	EC50 [2, 4] [nM]	other results
O=C(NC1CCN(c2ccnc3cc(C(F)(F)F)ccc23)CC1)c1cccc(Cl)c1Cl [Example 34, 2,3-Dichloro-N-[1-(7-trifluoromethyl-quinolin-4-yl)-piperidin-4-yl]-benzamide]	200	> 19000	
O=C(NC1CCN(c2ccnc3cc(Cl)ccc23)CC1)c1ccc([N+](=O)[O-])o1 [Example 26, 5-Nitro-furan-2-carboxylic acid [1-(7-chloro-quinolin-4-yl)-piperidin-4-yl]-amide]	2000	> 19000	
O=C(NC1CCN(c2ccnc3cc(Cl)ccc23)CC1)c1ccccc1Br [Example 1, 2-Bromo-N-[1-(7-chloro-quinolin-4-yl)-piperidin-4-yl]-benzamide]	600	> 19000	
O=C(NC1CCN(c2ccnc3c(Cl)cccc23)CC1)c1cccc(Cl)c1Cl [Example 35, 2,3-Dichloro-N-[1-(8-chloro-quinolin-4-yl)-piperidin-4-yl]-benzamide]	100	> 19000	
O=C(NC1CCN(c2ccnc3cc(Br)ccc23)CC1)c1cccc(Cl)c1Cl [Example 36, N-[1-(7-Bromo-quinolin-4-yl)-piperidin-4-yl]-2,3-dichloro-benzamide]	100	> 19000	
CC(C)Oc1ccc2c(=O)c3cc(C(=O)O)ccc3oc2c1 [AH 6809, reference compound]			suppression of cumulus expansion (cumulus-oocyte complexes; concentration of 100-200 μM): about 20%
O=C(NC1CCN(c2ccnc3cc(Cl)ccc23)CC1)c1ccccc1Cl [Example 4, 2-Chloro-N-[1-(7-chloro-quinolin-4-yl)-piperidin-4-yl]-benzamide]	1000	> 19000	
O=C(NC1CCN(c2ccnc3cc(Cl)ccc23)CC1)c1ccc(F)c(F)c1F [Example 20, N-[1-(7-Chloro-quinolin-4-yl)-piperidin-4-yl]-2,3,4-trifluoro-benzamide]	1600	> 19000	
O=C(NC1CCN(c2ncnc3cc(Cl)ccc23)CC1)c1cccc(Cl)c1Cl [Example 37, 2,3-Dichloro-N-[1-(7-chloro-quinazolin-4-yl)-piperidin-4-yl]-benzamide]	600	> 19000	
N#Cc1ccc2c(N3CCC(NC(=O)c4cccc(Cl)c4Cl)CC3)ccnc2c1 [Example 40, 2,3-Dichloro-N-[1-(7-cyano-quinolin-4-yl)-piperidin-4-yl]-benzamide]	900	> 19000	
O=C(NC1CCN(c2ccnc3cc(Cl)ccc23)CC1)c1ccccc1I [Example 10, N-[1-(7-Chloro-quinolin-4-yl)-piperidin-4-yl]-2-iodo-benzamide]	1300		
O=C(NC1CCN(c2ccnc3cc(Cl)ccc23)CC1)c1cccc(Cl)c1Cl [Example 25, 2,3-Dichloro-N-[1-(7-chloro-quinolin-4-yl)-piperidin-4-yl)-benzamide]		> 19000	suppression of cumulus expansion (cumulus-oocyte complexes; one tenth of the concentration (of 100-200 μM)): ~50%; IC50 ([1]; antagonism test, read-out: IC50 in the antagonism test): 200 nM; EC50 ([2]; cellular agonism test, read-out: EC50 in the cellular agonism test): > 19000 nM
